Values of other authors as cited in patent US20170020882A1, “ANTIVIRAL FORMULATION” (MEDA PHARMA SARL, priority 2008, published 2017).

Columns and labels:
cold sore lesions = details: human, in vivo
[1] = human, in vivo

For `Nc1nc2c(ncn2CCC(CO)CO)c(=O)[nH]1` [penciclovir], the “reduction in healing time” value (cold sore lesions) is given as 0.7 days and the “reduction of time to loss of pain” value (cold sore lesions) is given as 0.6 days.
For `CC(=O)OCC(CCn1cnc2cnc(N)nc21)COC(C)=O` [famciclovir], the “frequency of aborted lesions” value [1] is listed as 8%.
